Among the data in BindingDB's records for doi:10.1021/acs.jmedchem.6b01385 (Medical University of South Carolina, 2016) are IC50 values, retold here.

Structures are written as SMILES.

This experiment concerns the target Histone deacetylase 3 (Homo sapiens, UniProt O15379). Put plainly: Allosteric inhibition of C-terminal His-tagged recombinant human HDAC3 expressed in Sf9 cells pre-incubated for 2 hrs before acetylated lysine-aminomethyl coumarin-BOC addition and measured after 2 hrs by fluorescence based assay.

Sequence of Histone deacetylase 3 (O15379 whole entry): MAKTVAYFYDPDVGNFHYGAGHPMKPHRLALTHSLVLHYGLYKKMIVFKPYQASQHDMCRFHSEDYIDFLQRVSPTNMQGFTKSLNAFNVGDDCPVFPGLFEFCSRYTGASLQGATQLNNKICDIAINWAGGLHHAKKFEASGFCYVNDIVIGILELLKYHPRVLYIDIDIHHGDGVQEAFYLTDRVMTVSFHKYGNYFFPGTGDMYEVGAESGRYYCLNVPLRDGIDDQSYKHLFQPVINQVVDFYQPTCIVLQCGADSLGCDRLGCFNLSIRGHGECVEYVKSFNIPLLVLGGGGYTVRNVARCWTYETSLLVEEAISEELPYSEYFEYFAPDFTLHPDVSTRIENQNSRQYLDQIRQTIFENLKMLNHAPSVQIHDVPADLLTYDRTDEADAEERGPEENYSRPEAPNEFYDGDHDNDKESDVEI

On to `CCCCCCCCCCNNC(=O)c1ccc(CNC(=O)c2ccccc2)cc1` [N-(4-(2-decylhydrazine-1-carbonyl)benzyl)benzamide], for which the 50% inhibitory concentration (IC50) was greater than 10 µM.
